Assay results from PMC10914731, “Homo-BacPROTAC-induced degradation of ClpC1 as a strategy against drug-resistant mycobacteria” (Nature Communications, 2024).
Converted amounts (≈) assume the structure as drawn. “And” between values parts separate entries of the source, which are not always exact repeats. Equal entries are not always repeated. Where two headings read alike, the source gives them in different places. *1 amine or outer side, *2 acyl side, *3 side chain or, on linkers, in order; H or OH if unused. Where a SMILES comes first, the peptide text is derived from it. [ ]: non-standard residue; d: D form. X1 = C#CCn1cc(C[C@H](N[*:1])C(=O)[*:2])c2ccccc21; NMeLeu(5-OH,4R) = CN[C@@H](C[C@@H](C)CO)C(=O)O; Phe(βR-OMe) = CO[C@H](c1ccccc1)[C@H](N)C(=O)O; Trp(1-Me) = Cn1cc(C[C@H](N)C(=O)O)c2ccccc21; NMeL = CN[C@@H](CC(C)C)C(=O)O; Pra = C#CC[C@H](N)C(=O)O

Tests used:
Msm #607 = test: Minimum bactericidal concentration (MBC), Msm #607; assay type: cell-based, Mycobacterium smegmatis; conditions: Mycolicibacterium smegmatis
[1] = assay type: in vitro ADME, Human
Mtb ATCC 35825 = test: microbe, parasite or virus in culture; assay type: cell-based
Mycobacterium abscessus = test: microbe, parasite or virus in culture; assay type: cell-based
[2] = system: Mycobacterium intracellulare; test: microbe, parasite or virus in culture; assay type: cell-based
[3] = system: non-replicating cells of Mtb H37Rv; assay type: cell-based, Mycobacterium tuberculosis; conditions: three replicate columns
[4] = assay type: in vitro ADME, Rat
Mtb # 8673 = test: microbe, parasite or virus in culture; assay type: cell-based
[5] = ATCC607, read-out: MBC (from Set 3) Msm ATCC 607
[6] = read-out: MBC Msm #607, individual example
[7] = Mycobacterium tuberculosis, ATCC35825, mean, n = 2 well replicates
[8] = Mycobacterium tuberculosis, ATCC35825, single well replicates
[9] = Experiment 2, three replicate columns
[10] = Experiment 2, three replicate columns, read-out: MIC (µM) Mycobacterium abscessus
[11] = Mycobacteroides abscessus, Experiment 1, read-out: MIC Mycobacterium abscessus
[12] = Mycobacteroides abscessus, Experiment 2, three replicate columns, read-out: MIC (µM) Mycobacterium abscessus
[13] = Mycobacteroides abscessus, Experiment 2, three replicate columns, read-out: MIC (µg/ml) Mycobacterium abscessus
[14] = Mycobacteroides abscessus, mean ± SD, read-out: MIC Mycobacterium abscessus
[15] = Experiment 1, read-out: MIC Mycobacterium intracellulare
[16] = Experiment 2, three replicate columns, read-out: MIC (µM) Mycobacterium intracellulare
[17] = Mycobacterium intracellulare, Experiment 1, read-out: MIC Mycobacterium intracellulare
[18] = Mycobacterium intracellulare, Experiment 2, three replicate columns, read-out: MIC (µM) Mycobacterium intracellulare
[19] = Mycobacterium intracellulare, Experiment 2, three replicate columns, read-out: MIC (µg/ml) Mycobacterium intracellulare
[20] = Mycobacterium intracellulare, mean ± SD, read-out: MIC Mycobacterium intracellulare
[21] = Mycobacterium tuberculosis, mean, n = 2 well replicates
[22] = Mycobacterium tuberculosis, single well replicates

Structure (SMILES) | MBC (Msm #607; [5]) | MBC (Msm #607; [6]) | MIC (Mtb ATCC 35825; [7]) | MIC (Mtb ATCC 35825; [8]) | MIC (Mtb ATCC 35825; single well replicates) [µM] | MIC Mtb ATCC 35825 (Mtb ATCC 35825; single well replicates) [µg/mL] | MIC (µg/ml) Mycobacterium abscessus (Mycobacterium abscessus; [9]) [µg/mL] | MIC (Mycobacterium abscessus; [10]) [µM] | MIC (Mycobacterium abscessus; [11]) | MIC (Mycobacterium abscessus; [12]) [µM] | MIC (Mycobacterium abscessus; [13]) [µg/mL] | MIC (Mycobacterium abscessus; [14]) [µM] | MIC (µg/ml) Mycobacterium intracellulare [2, 9] [µg/mL] | MIC [2, 16] [µM] | MIC [2, 17] | MIC [2, 18] [µM] | MIC [2, 19] [µg/mL] | MIC [2, 20] [µM] | Supplementary Figure 2 dose-response value, starvation-induced non-replicating H37Rv cells ([3]; Conc. 0.0488281 µM) | Supplementary Figure 2 dose-response value, starvation-induced non-replicating H37Rv cells ([3]; Conc. 0.0976562 µM) | other results
C#CC[C@@H]1NC(=O)[C@H](CC(C)C)N(C)C(=O)[C@H](C(C)C)NC(=O)[C@H]([C@H](OC)c2ccccc2)NC(=O)[C@H](C)NC(=O)[C@H](C[C@@H](C)CO)N(C)C(=O)[C@H](Cc2cn(C)c3ccccc23)NC1=O [Compound 10] (cyclo(A[Phe(βR-OMe)]V[NMeL][Pra][Trp(1-Me)][NMeLeu(5-OH,4R)])) | > 45.6 µg/mL and > 50 µM | > 50 µM and > 45.7 µg/mL | 0.4 µM and 0.4 µg/mL | 0.36 µg/mL and 0.39 µM | 0.39 (≈ 0.356 µg/mL) | 0.36 (≈ 0.394 µM) | 11.41 (≈ 12.5 µM) | 12.5 | 12.5 µM and 11.4 µg/mL | 12.5 | 11.4 | 12.5 | 11.41 (≈ 12.5 µM) | 12.5 | 11.4 µg/mL | 12.5 | 11.4 | 12.5 | 91.338 and 78.4072 and 99.8789 | 83.6098 and 87.8245 and 85.6175 | Hepatocyte Human ([1]; clearance in hepatocytes): 12 %Qh; MIC [2, 15]: 12.5 µM; Supplementary Figure 2 dose-response value, starvation-induced non-replicating H37Rv cells ([3]; Conc. 0.195312 µM): 83.554 and 88.4379 and 86.5417; Supplementary Figure 2 dose-response value, starvation-induced non-replicating H37Rv cells ([3]; Conc. 0.390625 µM): 81.2435 and 84.4384 and 85.1554; Supplementary Figure 2 dose-response value, starvation-induced non-replicating H37Rv cells ([3]; Conc. 0.78125 µM): 80.3114 and 85.7211 and 82.4466; Supplementary Figure 2 dose-response value, starvation-induced non-replicating H37Rv cells ([3]; Conc. 1.5625 µM): 81.8012 and 82.096 and 79.8971; Supplementary Figure 2 dose-response value, starvation-induced non-replicating H37Rv cells ([3]; Conc. 3.125 µM): 77.0129 and 81.0842 and 77.6981; Supplementary Figure 2 dose-response value, starvation-induced non-replicating H37Rv cells ([3]; Conc. 6.25 µM): 66.8627 and 77.4193 and 82.598; Supplementary Figure 2 dose-response value, starvation-induced non-replicating H37Rv cells ([3]; Conc. 25 µM): 73.1408 and 72.615 and 70.6073; Supplementary Figure 2 dose-response value, starvation-induced non-replicating H37Rv cells ([3]; Conc. 50 µM): 65.1656 and 61.5724 and 59.0468; Supplementary Figure 2 dose-response value, starvation-induced non-replicating H37Rv cells ([3]; Conc. 100 µM): 53.5574 and 51.9958 and 57.3099; Hepatocyte Stability Rat QH ([4]; Rat): 69.830%; Hepatocyte Rat ([4]; clearance in hepatocytes): 70 %Qh; MIC (Mtb # 8673; [21]): 0.4 µM and 0.4 µg/mL; MIC (Mtb # 8673; [22]): 0.39 µM and 0.36 µg/mL; MIC (Mtb # 8673; single well replicates): 0.39 µM (≈ 0.356 µg/mL); MIC Mtb # 8673 (Mtb # 8673; single well replicates): 0.36 µg/mL (≈ 0.394 µM)
C#CCn1cc(C[C@@H]2NC(=O)[C@H](C(C)C)NC(=O)[C@H](CC(C)C)N(C)C(=O)[C@H](C(C)C)NC(=O)[C@H]([C@H](OC)c3ccccc3)NC(=O)[C@H](C)NC(=O)[C@H](C[C@@H](C)CO)N(C)C2=O)c2ccccc21 [Compound 5] (cyclo(A[Phe(βR-OMe)]V[NMeL]V[X1][NMeLeu(5-OH,4R)])) | > 47 µg/mL and > 50 µM | > 50 µM and > 47.1 µg/mL | 0.2 µM and 0.2 µg/mL | 0.18 µg/mL and 0.19 µM | 0.19 (≈ 0.179 µg/mL) | 0.18 (≈ 0.191 µM) | 5.88 (≈ 6.25 µM) | 6.25 | 3.1 µM and 2.9 µg/mL | 6.25 | 5.88 | 5.5 ± 1.6 | 5.88 (≈ 6.25 µM) | 6.25 | 5.9 µg/mL | 6.25 | 5.88 | 6.3 | 103.448 and 95.0508 and 97.0505 | 90.7405 and 81.0762 and 83.793 | Hepatocyte Human ([1]; human, pH 7.4): 12 %Qh; Hepatocyte Stability Human QH ([1]; human, pH 7.4): 12.386%; MIC [2, 15]: 6.3 µM; Supplementary Figure 2 dose-response value, starvation-induced non-replicating H37Rv cells ([3]; Conc. 0.195312 µM): 92.9713 and 85.6175 and 87.7368; Supplementary Figure 2 dose-response value, starvation-induced non-replicating H37Rv cells ([3]; Conc. 0.390625 µM): 86.478 and 81.4188 and 83.0521; Supplementary Figure 2 dose-response value, starvation-induced non-replicating H37Rv cells ([3]; Conc. 0.78125 µM): 85.259 and 79.8652 and 81.4825; Supplementary Figure 2 dose-response value, starvation-induced non-replicating H37Rv cells ([3]; Conc. 1.5625 µM): 86.0796 and 80.7177 and 79.658; Supplementary Figure 2 dose-response value, starvation-induced non-replicating H37Rv cells ([3]; Conc. 3.125 µM): 84.8208 and 76.8536 and 80.407; Supplementary Figure 2 dose-response value, starvation-induced non-replicating H37Rv cells ([3]; Conc. 6.25 µM): 82.0881 and 78.7498 and 78.7099; Supplementary Figure 2 dose-response value, starvation-induced non-replicating H37Rv cells ([3]; Conc. 25 µM): 68.1135 and 65.0382 and 65.6038; Supplementary Figure 2 dose-response value, starvation-induced non-replicating H37Rv cells ([3]; Conc. 50 µM): 63.9387 and 63.1101 and 60.943; Supplementary Figure 2 dose-response value, starvation-induced non-replicating H37Rv cells ([3]; Conc. 100 µM): 61.9787 and 54.8959 and 58.7122; Hepatocyte Rat ([4]; rat, pH 7.4): 51 %Qh; Hepatocyte Stability Rat QH ([4]; rat, pH 7.4): 51.066%; MIC (Mtb # 8673; [21]): 0.2 µM and 0.2 µg/mL; MIC (Mtb # 8673; [22]): 0.19 µM and 0.18 µg/mL; MIC (Mtb # 8673; single well replicates): 0.19 µM (≈ 0.179 µg/mL); MIC Mtb # 8673 (Mtb # 8673; single well replicates): 0.18 µg/mL (≈ 0.191 µM)
CO[C@H](c1ccccc1)[C@@H]1NC(=O)[C@H](C)NC(=O)[C@H](C[C@@H](C)CO)N(C)C(=O)[C@H](Cc2cn(Cc3cn(CCOCCn4cc(Cn5cc(C[C@@H]6NC(=O)[C@H](C(C)C)NC(=O)[C@H](CC(C)C)N(C)C(=O)[C@H](C(C)C)NC(=O)[C@H]([C@H](OC)c7ccccc7)NC(=O)[C@H](C)NC(=O)[C@H](C[C@@H](C)CO)N(C)C6=O)c6ccccc65)nn4)nn3)c3ccccc23)NC(=O)[C@H](C(C)C)NC(=O)[C@H](CC(C)C)N(C)C(=O)[C@H](C(C)C)NC1=O [Compound 6] | – | – | – | – | – | – | – | – | – | – | – | – | – | – | – | – | – | – | – | – | Hepatocyte Human ([1]; clearance in hepatocytes): 12 %Qh; Hepatocyte Rat ([4]; clearance in hepatocytes): 6 %Qh
COc1c(N2C[C@@H]3CCCN[C@@H]3C2)c(F)cc2c(=O)c(C(=O)O)cn(C3CC3)c12 [Moxifloxacin, reference compound] | 0.13 µg/mL and 0.31 µM | 0.3 µM and 0.1 µg/mL | 0.1 µM and 0.1 µg/mL | 0.06 µg/mL and 0.15 µM | 0.15 (≈ 0.0602 µg/mL) | 0.06 (≈ 0.149 µM) | 1 (≈ 2.49 µM) | 2.49 | 2.49 µM and 1 µg/mL | 2.49 | 1 | 2.5 | 0.50 (≈ 1.25 µM) | 1.25 | 1.25 µM and 0.5 µg/mL | 1.25 | 0.5 | 1.2 | 96.0307 and 94.5408 and 97.6321 | 87.2508 and 88.414 and 86.3824 | Supplementary Figure 2 dose-response value, starvation-induced non-replicating H37Rv cells ([3]; Conc. 0.195312 µM): 85.0837 and 87.4102 and 85.2989; Supplementary Figure 2 dose-response value, starvation-induced non-replicating H37Rv cells ([3]; Conc. 0.390625 µM): 85.4263 and 85.2112 and 85.8964; Supplementary Figure 2 dose-response value, starvation-induced non-replicating H37Rv cells ([3]; Conc. 0.78125 µM): 82.9485 and 82.598 and 80.152; Supplementary Figure 2 dose-response value, starvation-induced non-replicating H37Rv cells ([3]; Conc. 1.5625 µM): 77.7618 and 79.2358 and 77.6503; Supplementary Figure 2 dose-response value, starvation-induced non-replicating H37Rv cells ([3]; Conc. 3.125 µM): 77.3794 and 79.3075 and 79.2756; Supplementary Figure 2 dose-response value, starvation-induced non-replicating H37Rv cells ([3]; Conc. 6.25 µM): 72.6389 and 74.9414 and 71.1889; Supplementary Figure 2 dose-response value, starvation-induced non-replicating H37Rv cells ([3]; Conc. 25 µM): 59.9471 and 62.2337 and 59.4213; Supplementary Figure 2 dose-response value, starvation-induced non-replicating H37Rv cells ([3]; Conc. 50 µM): 60.21 and 62.4647 and 60.935; Supplementary Figure 2 dose-response value, starvation-induced non-replicating H37Rv cells ([3]; Conc. 100 µM): 55.7882 and 57.6844 and 55.7723; MIC (Mtb # 8673; [21]): 0.1 µM and 0.1 µg/mL; MIC (Mtb # 8673; [22]): 0.15 µM and 0.06 µg/mL; MIC (Mtb # 8673; single well replicates): 0.15 µM (≈ 0.0602 µg/mL); MIC Mtb # 8673 (Mtb # 8673; single well replicates): 0.06 µg/mL (≈ 0.149 µM)
